Results as given in ChEMBL document CHEMBL5257037, “Side Chain Cyclized Aromatic Amino Acids: Great Tools as Local Constraints in Peptide and Peptidomimetic Design” (J Med Chem, 2016).

Columns and labels:
[1] = molecular target: T1, Angiotensin-converting enzyme (Homo sapiens, UniProt P12821); assay: Inhibition of angiotensin-converting enzyme (unknown origin)
[2] = Inhibition of farnesyltransferase (unknown origin); design: species or system Homo sapiens
[3] = molecular target: T2, B2 bradykinin receptor (Homo sapiens, UniProt P30411); assay: Antagonist potency at B2 bradykinin receptor (unknown origin); conditions: read-out: pA2 (converted)
T2 sequence (P30411 whole entry): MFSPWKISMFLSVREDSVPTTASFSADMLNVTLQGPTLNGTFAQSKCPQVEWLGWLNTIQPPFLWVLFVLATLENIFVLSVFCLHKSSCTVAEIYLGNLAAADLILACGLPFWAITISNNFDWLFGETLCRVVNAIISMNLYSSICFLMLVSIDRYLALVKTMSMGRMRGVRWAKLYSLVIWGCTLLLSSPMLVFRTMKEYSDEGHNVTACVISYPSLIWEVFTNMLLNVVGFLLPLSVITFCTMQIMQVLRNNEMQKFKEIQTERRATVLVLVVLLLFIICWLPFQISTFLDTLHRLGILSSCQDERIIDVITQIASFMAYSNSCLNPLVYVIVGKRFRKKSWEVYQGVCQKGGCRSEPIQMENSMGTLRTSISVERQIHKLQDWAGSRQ

[4] = molecular target: T2, B2 bradykinin receptor; assay: Binding affinity to B2 bradykinin receptor (unknown origin)
[5] = molecular target: T1, Angiotensin-converting enzyme; assay: Binding affinity to angiotensin-converting enzyme (unknown origin) assessed as inhibition constant
[6] = molecular target: Neprilysin (Homo sapiens, UniProt P08473); assay: Binding affinity to neutral endopeptidase (unknown origin) assessed as inhibition constant
[7] = molecular target: Substance-P receptor (Homo sapiens, UniProt P25103); assay: Inhibition of [3H]SP binding to human neurokinin receptor 1 expressed in CHO cells; format: cell-based

With `CCOC(=O)[C@H](CCc1ccccc1)N[C@@H](C)C(=O)N1[C@H](C(=O)O)C[C@@H]2CCC[C@@H]21` the IC50 [1] was 4.2 nM.

Work on `CSCC[C@H](NC(=O)[C@@H]1Cc2ccccc2CN1C(=O)[C@@H](NC[C@@H](N)CS)C(C)C)C(=O)O` yielded an IC50 [2] of 0.6 nM.

`CSCC[C@H](NC(=O)[C@H]1Cc2ccccc2CN1C(=O)[C@@H]1CCCN1C(=O)[C@H](CS)NC(=O)[C@@H](N)CCCCN)C(=O)O` showed an IC50 [2] of 100000 nM.

Work on `N=C(N)NCCC[C@@H](N)C(=O)N[C@@H](CCCNC(=N)N)C(=O)N1CCC[C@H]1C(=O)N1C[C@H](O)C[C@H]1C(=O)NCC(=O)N[C@@H](Cc1cccs1)C(=O)N[C@@H](CO)C(=O)N[C@@H]1Cc2ccccc2CN(CC(=O)N[C@@H](CCCNC(=N)N)C(=O)O)C1=O` yielded a Kb [3] of 2510 nM and a Ki ([4]; read-out: pKi (converted)) of 316 nM.

Molecule `CC(C)C[C@@H](C(=O)O)N1CCO[C@@H](c2ccccc2)[C@H](NC(=O)[C@@H](S)Cc2ccccc2)C1=O` has a Ki [5] of 50000 nM and a Ki [6] of 330 nM.

`CC(=O)NC1(C(=O)OCc2cc(C(F)(F)F)cc(C(F)(F)F)c2)CCc2[nH]c3ccccc3c2C1` (centres undefined) gave a Ki [7] of 765 nM.

`N=C(N)NCCC[C@@H](N)C(=O)N[C@@H](CCCNC(=N)N)C(=O)N1CCC[C@H]1C(=O)N1C[C@H](O)C[C@H]1C(=O)NCC(=O)N[C@@H](Cc1cccs1)C(=O)N[C@@H](CO)C(=O)N1CCC[C@]12Cc1ccccc1CN(CC(=O)N[C@@H](CCCNC(=N)N)C(=O)O)C2=O` showed a Kb [3] of 3160 nM and a Ki ([4]; read-out: pKi (converted)) of 25.1 nM.

With `C[C@H](N[C@@H](CCc1ccccc1)C(=O)O)C(=O)N1Cc2ccccc2[C@H]1C(=O)O` the IC50 [1] was 44 nM.

For `N=C(N)NCCC[C@@H](N)C(=O)N[C@@H](CCCNC(=N)N)C(=O)N1CCC[C@H]1C(=O)N1C[C@H](O)C[C@H]1C(=O)NCC(=O)N[C@@H](Cc1cccs1)C(=O)N[C@@H](CO)C(=O)N1CCC[C@@]12Cc1ccccc1CN(CC(=O)N[C@@H](CCCNC(=N)N)C(=O)O)C2=O`, the Kb [3] was 2000 nM and the Ki ([4]; read-out: pKi (converted)) was 3.16 nM.

`CSCC[C@H](NC(=O)[C@@H]1Cc2ccccc2CN1C[C@@H](NC(=O)[C@@H](N)CS)C(C)C)C(=O)O` showed an IC50 [2] of 0.37 nM.

For `N=C(N)NCCC[C@@H](N)C(=O)N[C@@H](CCCNC(=N)N)C(=O)N1CCC[C@H]1C(=O)N1C[C@H](O)C[C@H]1C(=O)NCC(=O)N[C@@H](Cc1cccs1)C(=O)N[C@@H](CO)C(=O)N1Cc2ccccc2C[C@@H]1C(=O)N1Cc2ccccc2C[C@@H]1C(=O)N[C@@H](CCCNC(=N)N)C(=O)O`, the Kb [3] was 2510 nM and the Ki ([4]; read-out: Ki) was 571 nM.

Molecule `CC(C)C[C@H](NC(=O)CNC(=O)OCc1ccccc1)C(=O)NC1(C(=O)OCc2cc(C(F)(F)F)cc(C(F)(F)F)c2)CNc2[nH]c3ccccc3c2C1` (some centres undefined) has a Ki [7] of 200 nM.

For `CC(C)C[C@@H](C(=O)O)N1Cc2ccccc2C[C@H](NC(=O)[C@@H](S)Cc2ccccc2)C1=O`, the Ki [6] was 0.4 nM.

In the case of `N=C(N)NCCC[C@@H](N)C(=O)N[C@@H](CCCNC(=N)N)C(=O)N1CCC[C@H]1C(=O)N1C[C@H](O)C[C@H]1C(=O)NCC(=O)N[C@@H](Cc1cccs1)C(=O)N[C@@H](CO)C(=O)N[C@H]1Cc2ccccc2CN(CC(=O)N[C@@H](CCCNC(=N)N)C(=O)O)C1=O`, the Ki ([4]; read-out: pKi (converted)) is reported as 200 nM.

With `O=C(O)[C@H](CCc1ccccc1)N[C@H]1Cc2ccccc2[C@H]2CCC[C@@H](C(=O)O)N2C1=O` the Ki [5] was 0.004 nM and the Ki [6] was > 10 nM.

`N=C(N)NCCC[C@@H](N)C(=O)N[C@@H](CCCNC(=N)N)C(=O)N1CCC[C@H]1C(=O)N1C[C@H](O)C[C@H]1C(=O)NCC(=O)N[C@@H](Cc1cccs1)C(=O)N[C@H]1CSSC[C@@H](C(=O)N[C@@H](CCCNC(=N)N)C(=O)O)NC(=O)[C@H](Cc2ccccc2)NC(=O)[C@H](Cc2ccccc2)NC1=O` showed a Kb [3] of 3980 nM and a Ki ([4]; read-out: Ki) of 876 nM.

Molecule `N=C(N)NCCCC(NC(=O)[C@@H]1C[C@@H]2CCC[C@@H]2N1C(=O)[C@H]1Cc2ccccc2CN1C(=O)[C@H](CO)NC(=O)[C@H](Cc1cccs1)NC(=O)CNC(=O)[C@@H]1C[C@@H](O)CN1C(=O)[C@@H]1CCCN1C(=O)[C@H](CCCNC(=N)N)NC(=O)[C@H](N)CCCNC(=N)N)C(=O)O` (some centres undefined) has a Kb [3] of 0.398 nM and a Ki ([4]; read-out: Ki) of 0.18 nM.

`CSCC[C@H](NC(=O)[C@@H]1Cc2ccccc2CN1C(=O)[C@@H](NC(=O)[C@H](CS)NC(=O)[C@@H](N)CCCCN)C(C)C)C(=O)O` showed an IC50 [2] of 20 nM.

Work on `CC(C)C[C@H](NC(=O)CNC(=O)OCc1ccccc1)C(=O)N1Cc2[nH]c3ccccc3c2C[C@H]1C(=O)OCc1cc(C(F)(F)F)cc(C(F)(F)F)c1` yielded a Ki [7] of 63 nM.

Work on `C[C@H](C(=O)N[C@@H](CCCNC(=N)N)C(=O)O)N1Cc2ccccc2C[C@@H](NC(=O)[C@H](CO)NC(=O)[C@H](Cc2ccccc2)NC(=O)CNC(=O)[C@@H]2CCCN2C(=O)[C@@H]2CCCN2C(=O)[C@@H](N)CCCNC(=N)N)C1=O` yielded a Ki ([4]; read-out: pKi (converted)) of 501 nM.

`O=C(O)CN1Cc2ccccc2C[C@H](N[C@@H](CCc2ccccc2)C(=O)O)C1=O` gave a Ki [5] of 10 nM.
